Experimental data: US5686423A, “Di-and tri-peptide mimetic compounds for Parkinson's disease” (Department of Health, the Executive Yuan, Republic of China, priority 1996, dated 1997)
One block for each compound: values may come before it. Residues, ends and D or L forms follow the SMILES beside them.

Key:
[1] = tested on: 6-hydroxydopamine-lesioned male Wistar rats; experiment: Rotational behavior of nigrostriatal-lesioned rats elicited by (+)-methamphetamine; type: in vivo, rat; conditions: for rotation: control saline 552 ± 47
Text: Anti-Parkinsonism effect was determine by virtue of measuring the change in rotational behavior of 6-hydroxydopamine-lesioned male Wistar rats [Hudson J. L.; Levin. D. R.; Hoffer, B. J. A Sixteen-Channel Automated Rotometer System For Reliable Measurement of Turning Behavior in 6-Hydroxydopamine Lesioned and Transplanted Rats. Cell Transplantation 1993, 2, 507-514; Hudson J. L, Van Horne C. G.; Stromberg I.; Brock. S.; Clayton, J.; Masserano, J.; Hoffer, B. J.; Gerhardt, G. A. Correlation of Apomorphine and Amphetamine Induced Turning With Nigrostriatal Dopamine Content in Unilateral 6-Hydroxydopamine Lesioned Rats. Brain Res. 1993, 626, 167-174].
Twenty male Wistar rats weighing 150-175 grams were used. Within a 36 h window, all rats were lesioned by the same investigator using the following procedure. Surgical anesthesia was produced by i.p. injection of 30 mg/kg of sodium pentobarbtal. The animals were placed in a stereotaxic frame and the skin over the skull was incised and reflected. Bregma was used as the coordinate origin and a burr-hole was placed in the cranium over the injection site. After a small-needle puncture of the dura and lowering into the brain parenchyma, a solution of […] of 6-hydroxydopamine HCl was injected using a microliter syringe and a 26 gauge dome-tipped needle (AP-4.4 mm, ML 1.3 mm. DV -7.8 mm). The needle was removed after a 1 min delay and the wound was closed. Convalescence occurred in home cages with food and water ad libitum for the duration of the experiment.
On each testing day, the rats were placed into rotometer bowls and were allowed to acclimatize for 10 min. They then received a subcutaneous dose of (+)-methamphetamine (4 mg/kg in vehicle) and were allowed to move within the bowls for at least 60 min, or until they stopped turning. The rats were returned to the home cages after the experiment until next testing session.
The degree of dopamine depletion was evaluated by monthly testing of rotational behavior in a multichannel rotometer system after methamphetamine (4 mg/Kg, s.c.) injection.

[2] = cited from earlier work
[3] = 37° C., 2 minutes of incubation
Method: Mucosa suspension was prepared from the intestine of male Wistar rats according to the method of Hu et al. [Pharm. […] After abdominal incision the intestinal segment between the beginning of the jejunum and the end of the ileum was removed and everted to let the interior exposed. The mucosal layer was washed with normal saline and then scraped with glass microscope slides. The scraping was collected, diluted 1:9 (v/v) with ice cold isotonic sucrose solution, and ultrasonicated for 200 seconds. The suspension was centrifuged at 2500 rpm for 5 minutes. The supernatant suspension was stored in an ice bath before subjected to degradation study. All the stability studies were conducted right after the mucosa suspension was prepared. One hundred microliter of a methanolic solution of the test compound (1 mg/mL) was diluted with 2.4 mL of an isotonic mannitol buffer solution (pH=6.5) as the stock solution. One hundred microliter of the stock solution was mixed with equal volume of the mucosal suspension. The mixture was incubated in a 37° C. water bath and subjected to sampling at time intervals between zero to 60 minutes. Two hundred microliter of each sampled solution was denatured with MeOH (0.8 mL) and centrifuged at 14000 rpm for 5 minutes. Twenty to one hundred microliters each of the solution was subjected to HPLC assay on a Lichrospher 100 RP-18 column (E. Merck, 5 μm, 250×3.9 mm). […]

pulmonary artery = conditions: continuous perfusion of 1 mg/mL for one min
Method: (§1) Each experiment was repeated at least three times. The mean responses before and after drug treatment were compared by means of Student's t test, with p<0.05, indicating significance. The contractile force of both pulmonary artery and vas deferences was elicited after continuous perfusion of dopamine (1 mg/mL) for one min.
(§2) Male guinea pigs (250-350 g) were stunned and bled. The vas deferences and pulmonary artery were isolated. A piece of the smooth muscle (about 1 mm wide and 7 mm long) was dissected. The isolated part was mounted vertically on an organ bath (1 mL capacity), kept at 35° C. and superfused with a physiological solution at a constant rate of about 2 mL /min (35° C.). The normal physiological solution had the following composition: NaCl (117 mM), KCl (5.9 mM), CaCl2 (2.4 mM), MgCl2 (1.2 mM), D-glucose (11.8 mM) and Tris 20 (pH 7.4 at 35° C.), aerated with 100% oxygen. Drugs tested were perfused for one min and then superfused with normal physiological solution or otherwise indicated. Tension was recorded isometrically by means of a Grass FT03 tranducer connected to a Grass model 7E polygraph or by a Gould UC2 transducer connected to a Gould 2200S recorder. Each experiment was repeated at least three times with different preparations.

vas deferences = conditions: continuous perfusion of 1 mg/mL for one min
Method: as §1, §2

[4] = rat jejunal perfusion, perfusate 0.1 mM; for plasma conc. (mean ± s.e.m): blood drawn after 90 min perfusion
Method: The intestinal absorption of the prodrugs was then investigated by measuring the plasma concentration in rats upon in situ single-pass rat jejunal perfusion, and by determining the fraction of absorption in rabbits with data obtained from single-dose intra-artery injection and oral administration.
Perfusion solutions containing 5 mM KCl, 100 mM NaCl, 10 mM MES, 6 mM D-glucose, the testing compound, and 0.02% ascorbic acid as an anti-oxidant, were adjusted to pH 6 with NaOH. Osmolarity, measured by a Wescor 5500 vapor pressure osmometer (Wescor Company, Logan, Utah, U.S.A.), was adjusted to 300±10 mOsm/kg using sodium chloride. […] In order to prevent test compounds from oxidation, perfusion solutions were freshly prepared with nitrogen gas bubbled through for 10 min before each perfusion experiment.
Male Wistar Rats were fasted overnight (16-20 h) prior to anesthesia induced by i.m. injection of urethane (1.5 g/kg body weight). Following induction of anesthesia, rats were put on a heating pat to maintain body temperature. A midline longitudinal incision was made and a 5 to 10 cm jejunal segment was cannulated at the distal end to drain perfusates into collecting tubes. The entire surgical area was then covered with parafilm to minimize temperature reduction through evaporation. Tubing and syringes were covered with aluminum foil to retard the oxidation of testing compounds. Perfusion solution was pumped through the jejunal segment at a flow rate of 0.2 mL/min by a syringe pump (Stoelting, KD Scientific, U.S.A.). The jejunal segment was prewashed initially with drug-free buffer for 10 min and then pumped with test solution. Outlet tubing samples were collected every 10 min for 6 collection periods after water and solute transport reached steady-state. After 90 min perfusion, blood sample (1-2 mL) was drawn by cardiac puncture. The blood samples were centrifuged at 3000 rpm for 10 min, the plasma were separated and stored at -20° C. before analysis. The samples were filtered through 0.2 μm membrane filters before injecting into HPLC system.
Assays of L-dopa and test compounds were performed on HPLC consisting an autosampler (Model 717, Waters, Millipore, Milford, Mass., U.S.A.), a solvent delivery pump (Model 600E, Waters), a tunable absorbence detector (Model 484 or 486, Waters), and a PC 486 computer with a chromatography manager software (Millennium 2010, Millipore). L-Dopa from the perfusate was assayed on a Spheri 5RP-18 column (ABI, 5 μm, 250×4.6 mm) at flow rate of 1.0 mL/min with mobile phase comprising MeOH:0.05M NH4 H2 PO4 buffer (pH 4.6) containing 0.02M sodium 1-pentanesulfonate=10:90 (v/v). […] Standards were injected during each assay. Linearity of standard peak area ratios was validated. Numerical computation on data were performed on Statworks and are represented as mean±standard error of mean (s.e.m) for n experiments. Treatment differences were evaluated by t test.

[5] = Single dose oral and intra-artery bioavailability study in rabbits; conditions: oral vs intra-artery, 10 mg/Kg, six rabbits, mean ± s.e.m.
Method: Prodrug 1a was subjected to single dose oral and intra-artery (i.a.) administrations on 6 fasted New Zealand white rabbits for oral bioavailability study.
Single intra-artery dose of prodrug 1a or the parent drug was administered in six fasted New Zealand white rabbits, weighting 2.5-3.0 Kg, via ear artery. Blood samples were withdrawn with heparinized syringes from the contralateral artery at time intervals ranged from 1 min to 3.5 h. Freshly drawn heparinized blood was treated with extraction buffer (1 mol of Tris and 20 g of EDTA per liter, pH 8.6) and then extracted with alumina (100 g). The alumina was extracted with acidic buffer and the extract subjected to HPLC analysis.
After wash-out period, the same rabbits were used for single oral dose administration of prodrug la with a feeding tube. […] Prodrug 1a and dihydroxybenzylamine,used as an internal standard, were detected with electrochemical detector at 0.750 V of oxidation potential. The maximal plasma concentration (Cmax) and the time to the maximal plasma concentration (tmax) were determined. The area under the plasma concentration-time profile (AUC) and the terminal half-life (t1/2) were calculated. Fraction of absorption was calculated from the pharmacokinetic parameters (tmax, Cmax, AUC, t1/2) obtained from oral and intra-artery administrations.

[6] = i.p. 1-2 hours prior to (+)-methamphetamine

Compound: NC(Cc1ccc(O)c(O)c1)C(=O)O [L-dopa, 2-amino-3-(3,4-dihydroxyphenyl)propanoic acid]
rotation ([1]; 4.2 mg/kg i.p., (+)-methamphetamine injected 1 h after treatment): 287 ± 86 turns/h
AUCCSF /AUCplasma ([2]; Parkinson disease, literature (Olanow et al. 1991)): 12/100
oral bioavailability ([2]; at up to 1000 mg/day): 33%

Compound: NCC(=O)N[C@@H](Cc1ccccc1)C(=O)O [L-glycine-L-phenylalanine] (H-Gly-Phe-OH)
fraction degraded in rat intestinal mucosa suspension [3]: 81%

contraction of pulmonary artery (resting tension) (pulmonary artery): elicited
contraction of vas deferences (resting tension) (vas deferences): elicited
Compound: NCCc1ccc(O)c(O)c1 [dopamine]

Compound: D-Phenylglycine-L-serine-L-dopa [2a]
plasma conc. (mean ± s.e.m) [4]: 8.49 ± 1.36

Compound: D-p-hydroxyphenylglycine-L-dopa [1b]
plasma conc. (mean ± s.e.m) [4]: 0.60 ± 0.01

Compound: D-p-hydroxyphenylglycine-L-proline-L-dopa [compound 2d]
rotation ([1]; 9.6 mg/kg i.p., (+)-methamphetamine injected 1 h after treatment): 223 ± 95 turns/h
rotation ([1]; 9.6 mg/kg i.p., (+)-methamphetamine injected 2 h after treatment): 247 ± 67 turns/h
anti-rotation activity compared with L-dopa (in words) [1, 6]: slightly higher than that of L-dopa
effect on (+)-methamphetamine-induced rotation (in words) [1, 6]: significantly prohibited

Compound: D-p-hydroxyphenylglycine-L-serine-L-dopa [2b]
plasma concentration, fold higher than that of L-dopa [4]: 60-100 fold
plasma conc. (mean ± s.e.m) [4]: 62.1 ± 3.53

Compound: D-phenylglycine-L-dopa [compound 1a]
plasma concentration, fold higher than that of L-dopa [4]: 60-100 fold
plasma conc. (mean ± s.e.m) [4]: 64.65 ± 5.45
fraction of absorption [5]: 76 ± 24%

Compound: L-dopa-D-phenylglycine [1c]
plasma concentration, fold higher than that of L-dopa [4]: 60-100 fold
plasma conc. (mean ± s.e.m) [4]: 104.00 ± 12.98
